Assay [1] deals with C57BL/6J mice. The assay can be described thus: LPS-induced proteinuria in mice. In kind it is in vivo, mouse. The protocol:
The induction of proteinuria in female wild type C57BL/6J mice (n=6-13 per group) by LPS injection was performed as described. (Reiser et al., J Clin Invest, 2004; Yanagida-Asanuma et al., The American Journal of Pathology, 2007; Faul et al., Nat Med, 2008; Yu et al., The New England Journal of Medicine, 2013.) Briefly, 10 week old female mice were intraperitoneally injected with LPS (10 mg/kg, in saline). Control mice were injected with saline alone. Animals in the treatment groups were treated with vehicle or 10 mg/kg pyr (stock in DMSO) diluted in saline 2 h prior to the administration of LPS. Spot urine was collected from each group of animals for measurement of albuminuria as mg albumin per mg creatinine. (Faul et al., Nat Med, 2008) Results are expressed as mean±SEM. The mice were sacrificed and the efficacy of pyrintegrin was further analyzed by histochemical and immunofluorescence analyses.
For light microscopy, freshly harvested mouse kidney tissue was embedded in OCT, snap frozen in liquid nitrogen and stored at −80° C. Tissue sections were cut and fixed in −20° C. acetone before immunofluorescence staining. Sections were blocked at room temperature for 1 h and incubated with the primary antibodies against total β1 integrin (hamster anti-mouse, BioLegend), active β1 integrin (Lentner et al., PNAS, 1993.) (rat anti-mouse antibody 9EG7, BD Biosciences) and synaptopodin (polyclonal goat, SC-21537, Santa Cruz) at 4° C. overnight. Slides were incubated with appropriate fluorescently labeled secondary antibodies (Life Technologies, CA) and mounted with DAPI containing mounting solution (Vector Laboratories, Burlingame, Calif.). Fluorescence images were acquired using a Zeiss 700 LSM confocal microscope with a 20× objective and analyzed using the Zen software (Carl Zeiss Group, Hartford, Conn.). For transmission electron microscopy (TEM), tissues were fixed, embedded, sectioned, and stained as previously described. Nature Medicine, 2008.) Images were acquired using Zeiss SIGMA HD VP electron microscope. […]

Assay [2] addresses T1, β1 integrin (Mus musculus, UniProt P09055).
T1 construct: we quantified the level of β1 in treated cells; endogenous in cells; host or cells: conditionally immortalized murine podocytes (from mouse line H-2Kb-tsA58)
The assay is described as follows: β1 integrin and active β1 integrin levels (antibody 9EG7) in PAN-treated murine podocytes. The assay is classed as cell-based. The text has this:
FIG. 9A-9E. An An β1-integrin agonist pyrintegrin (pyr) protects podocytes from damage. (A) The published chemical structure of pyr. (Xu et al. PNAS, 2010.) (B-D) Pyr protects podocytes from PAN-induced loss of F-actin fibers and focal adhesions and enhances active β1-integrin levels. (B) Graphs showing the effect of pyr on the number of F-actin fibers per cell and the number of vinculin spots per cell under each treatment condition. Data shown are means 6 SEMs per cell from three replicate wells (n=500-1000 cells per well). **P, 0.01; ***P, 0.001; ****P, 0.001. (C) Representative fluorescence images of murine podocytes after various treatments and after staining with phalloidin and antiactive β1 antibody. Two-color costained images show cells stained with phalloidin (red) and anti-active β1 antibody 9EG7 (green). Images were acquired using the Opera HCS System. […] Data shown are means±SEMs per cell from four to five replicate wells (n=500-1000 cells per well). Scale bar, 50 μm. *P, 0.01; **P, 0.001. (D) Representative fluorescence images of human podocytes after various treatments as shown. Images show cells stained with phalloidin (red) and anti-active β1-integrin antibody 12G10 (green). Images were acquired using the Opera HCS System. […] Data shown are medians±SEMs per cell from four to five replicate wells (n=500-1000 cells per well). Scale bar, 50 μm. **P, 0.01; ***P, 0.001. (E) Pyr reduces injury-mediated increase in podocyte migration in a scratch wound-healing assay. Representative images (left panel) and a bar graph (right panel) showing confocal microscopy-based quantitation of the number of migrating podocytes in a scratch wound-healing assay Lines represent the wound margins at the beginning of the experiment (0 hours). The data presented in the graph are plotted as means±SEMs (n≧15). C, control. Scale bar, 50 μm. **P<0.01; ****P<0.001.
FIG. 16. […] The cellular damage was assessed after staining the cells with phalloidin, anti-paxillin and anti-integrin β1 antibodies and quantifying various cellular phenotypes using the HCS system. […]

T1 sequence (P09055 21-798): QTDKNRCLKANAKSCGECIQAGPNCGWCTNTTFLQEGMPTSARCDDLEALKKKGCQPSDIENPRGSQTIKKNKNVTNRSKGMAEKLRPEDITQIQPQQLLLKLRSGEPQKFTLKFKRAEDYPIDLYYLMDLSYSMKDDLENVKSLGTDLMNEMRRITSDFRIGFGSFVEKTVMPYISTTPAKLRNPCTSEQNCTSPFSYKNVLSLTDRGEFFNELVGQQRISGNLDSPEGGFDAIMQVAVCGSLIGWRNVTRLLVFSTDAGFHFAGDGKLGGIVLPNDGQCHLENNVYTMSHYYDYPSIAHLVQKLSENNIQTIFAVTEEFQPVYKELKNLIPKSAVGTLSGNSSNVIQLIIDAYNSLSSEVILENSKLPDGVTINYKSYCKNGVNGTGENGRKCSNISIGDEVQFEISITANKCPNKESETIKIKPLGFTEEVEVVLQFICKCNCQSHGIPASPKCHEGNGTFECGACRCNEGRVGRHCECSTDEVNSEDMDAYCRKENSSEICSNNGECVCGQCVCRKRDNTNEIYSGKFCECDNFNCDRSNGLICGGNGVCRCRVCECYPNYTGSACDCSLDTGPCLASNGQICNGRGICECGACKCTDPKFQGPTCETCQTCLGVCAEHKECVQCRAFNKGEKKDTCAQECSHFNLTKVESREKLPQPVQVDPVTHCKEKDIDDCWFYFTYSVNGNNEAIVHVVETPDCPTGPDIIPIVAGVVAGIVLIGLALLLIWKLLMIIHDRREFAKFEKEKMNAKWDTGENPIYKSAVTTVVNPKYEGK
T1 sequence (Q62470 33-1053 partner): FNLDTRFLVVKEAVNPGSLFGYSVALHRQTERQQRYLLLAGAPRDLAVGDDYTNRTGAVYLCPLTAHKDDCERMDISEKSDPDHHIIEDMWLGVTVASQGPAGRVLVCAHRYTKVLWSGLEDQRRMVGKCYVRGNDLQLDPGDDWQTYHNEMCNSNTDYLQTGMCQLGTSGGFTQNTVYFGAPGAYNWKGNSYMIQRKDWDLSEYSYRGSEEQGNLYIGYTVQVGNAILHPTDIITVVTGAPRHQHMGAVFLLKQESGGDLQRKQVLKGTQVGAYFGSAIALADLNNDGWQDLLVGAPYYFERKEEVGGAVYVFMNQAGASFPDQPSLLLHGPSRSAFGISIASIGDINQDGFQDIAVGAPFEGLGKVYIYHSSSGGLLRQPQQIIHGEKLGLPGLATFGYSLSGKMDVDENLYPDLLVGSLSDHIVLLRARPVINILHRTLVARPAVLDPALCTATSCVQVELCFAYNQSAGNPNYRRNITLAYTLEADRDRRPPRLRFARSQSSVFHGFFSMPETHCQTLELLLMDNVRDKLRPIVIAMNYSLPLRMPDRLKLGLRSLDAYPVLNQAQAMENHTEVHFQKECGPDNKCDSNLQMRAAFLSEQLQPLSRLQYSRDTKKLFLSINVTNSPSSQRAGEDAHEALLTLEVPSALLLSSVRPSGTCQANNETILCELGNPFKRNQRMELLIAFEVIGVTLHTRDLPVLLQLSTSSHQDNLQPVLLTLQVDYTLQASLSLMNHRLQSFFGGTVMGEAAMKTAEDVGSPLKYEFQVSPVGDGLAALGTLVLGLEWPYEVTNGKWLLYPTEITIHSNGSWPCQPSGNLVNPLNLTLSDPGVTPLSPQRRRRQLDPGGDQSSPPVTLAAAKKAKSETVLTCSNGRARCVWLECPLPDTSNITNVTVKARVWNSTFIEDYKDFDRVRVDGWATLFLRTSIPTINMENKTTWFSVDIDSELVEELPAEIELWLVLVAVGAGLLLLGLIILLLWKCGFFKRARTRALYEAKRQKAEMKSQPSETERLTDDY

In the case of `O=S(=O)(NCC1CC1)c1ccc(Nc2nccc(N3CCCc4cc(O)ccc43)n2)cc1` [Pyrintegrin], the “proteinuria, albumin per creatinine in urine” value in assay [1] (C57BL/6 mice, LPS 10 mg/kg i.p., pyrintegrin 10 mg/kg, 24 hours) was 0.668±0.074 mg albumin per 1 mg creatinine. Further, the “active β1 integrin levels in glomeruli (antibody 9EG7)” value in assay [1] (mice, 24 hours after LPS, confocal microscopy) is given as “significant protection of the active β1 levels”. For the same molecule, in assay [1] (mice, pyrintegrin 10 mg/kg, electron microscopy), the “protection from LPS-induced podocyte FP effacement” value is “significant protection”. Also, in assay [2] (PAN 30 μg/mL, pyr 1 μM cotreatment, 48 h (FIG. 16)), the “β1 levels in podocytes” value is given as “preserved”. For the same molecule, in assay [2] (PAN cotreatment), the “active β1 levels in podocytes (antibody 9EG7)” value was “significant loss of active β1 levels in podocytes but not on treatment with pyrintegrin”. For the same molecule, the “active β1 levels in healthy cells” value in assay [2] (healthy cells, no PAN) was “significant increase in active β1 levels”.

(Values after patent US20170269060A1, “Assays and Compounds to Treat Kidney Diseases” (Rush University Medical Center, priority 2014, published 2017).)
